pEC50: −log10 of the molar value. Where two headings read alike, the source gives them in different places.
Key:
[1] = Cytotoxicity in PBM cells; assay type: cell-based; conditions: human
Protocol: (§1) The toxicity of the compounds was assessed in Vero, human PBM, CEM (human lymphoblastoid), MT-2, and HepG2 cells, as described previously (see Schinazi R. F., Sommadossi J.-P., Saalmann V., Cannon D. L., Xie M.-Y., Hart G. C., Smith G. A. & Hahn E. F. Antimicrob. Agents Chemother. 1990, 34, 1061-67). Cycloheximide was included as positive cytotoxic control, and untreated cells exposed to solvent were included as negative controls. The cytotoxicity IC50 or CC50 was obtained from the concentration-response curve using the median effective method described previously (see Chou T.-C. & Talalay P. Adv. Enzyme Regul. 1984, 22, 27-55; Belen'kii M. S. & Schinazi R. F. Antiviral Res. 1994, 25, 1-11).

SARS-CoV-2 [2] = assay: Anti-SARS-CoV-2 activity (Vero); assay type: cell-based; conditions: Severe acute respiratory syndrome coronavirus 2, MOI 0.1, 48 hr
SARS-CoV-2 [3] = assay: Anti-SARS-CoV-2 activity (Calu3); assay type: cell-based
[4] = Cytotoxicity in Vero cells; conditions: African green monkey, Vero cells (kidney)
[5] = Cytotoxicity in Huh7 cells; assay type: cell-based; conditions: human
SARS-CoV-2 [6] = assay: Anti-SARS-CoV-2 activity, 3D primary culture (HAE-ALI); assay type: cell-based; conditions: Severe acute respiratory syndrome coronavirus 2, air-liquid interface
SARS-CoV-2 [7] = assay: Anti-SARS-CoV-2 activity (Caco2); conditions: Severe acute respiratory syndrome coronavirus 2, Caco-2, 72 h; for pEC50: read-out: Anti-SARS-CoV-2 Activity (Caco2) EC50
Omicron [8] = assay: microbe, parasite or virus in culture; conditions: for EC90: Severe acute respiratory syndrome coronavirus 2, Caco-2, read-out: Anti-Omicron Activity (Caco-2) EC90
[9] = Cytotoxicity in CEM cells; assay type: cell-based; conditions: human, CEM lymphoblastoid cells
Protocol: as §1

[10] = system: mitochondrial DNA (COXII gene); assay: Mitochondrial toxicity in HepG2 cells (MtDNA / rDNA); conditions: human, HepG2 cells
[11] = system: rDNA (rRNA gene, nuclear reference); assay: as above; conditions: human, HepG2 cells
HepG2 cells = assay: as above; conditions: Homo sapiens
in vitro [12] = conditions: human
in vitro [13] = conditions: human, Caco-2
HCoV-OC43 = assay: Anti-HCoV-OC43 activity; assay type: cell-based
Omicron [14] = assay: Anti-Omicron activity (Calu-3); assay type: cell-based, SARS-CoV-2
SARS-CoV-2 [15] = assay: Anti-SARS-CoV-2 activity, 3D primary culture (Organoids); assay type: cell-based
[16] = Severe acute respiratory syndrome coronavirus 2, Calu-3, Calu3, MOI 1.0, 72 hr
[17] = Severe acute respiratory syndrome coronavirus 2, Caco-2, read-out: Anti-Omicron Activity (Caco-2) EC50
[18] = Severe acute respiratory syndrome coronavirus 2, Omicron, Calu-3, read-out: Anti-Omicron Activity (Calu-3) EC50
[19] = Severe acute respiratory syndrome coronavirus 2, Omicron, Calu-3, read-out: Anti-Omicron Activity (Calu-3) EC90

O=c1nc(NO)ccn1[C@@H]1S[C@H](CO)C(O)C1O (stereo in doubt) [Compound 17, 1-((2R,3S,4R,5R)-3,4-dihydroxy-5-(hydroxymethyl)-tetrahydrothiophen-2-yl)-4-(hydroxyamino) pyrimidin-2(1H)-one]
CC50 [1]: > 100 µM | pEC50 (SARS-CoV-2 [2]): > 5.00 | pEC50 (SARS-CoV-2 [3]; [16]): > 5.00 | CC50 [4]: > 100 µM | CC50 [5]: > 100 µM

O=c1ccn([C@@H]2S[C@H](CO)[C@@H](O)[C@H]2O)c(=O)[nH]1 [Compound 8, 1-((2R,3R,4S,5R)-3,4-dihydroxy-5-(hydroxymethyl)tetrahydrothiophen-2-yl)pyrimidine-2,4(1H,3H)-dione]
pEC50 (SARS-CoV-2 [6]): 7.40 | EC90 (SARS-CoV-2 [6]): 0.1 µM | CC50 [1]: > 100 µM | pEC50 (SARS-CoV-2 [2]): 6.40 | EC90 (SARS-CoV-2 [2]): 0.8 µM | pEC50 (SARS-CoV-2 [7]): 5.96 | pEC50 (Omicron [8]; [17]): 5.09 | EC90 (Omicron [8]): > 10 µM | CC50 [9]: 20.5 µM | CC50 at 7 days [10]: > 100 µM | CC50 at 7 days [11]: > 100 µM | inhibition at 100 µM (HepG2 cells; HepG2, read-out: inhibition of MtDNA at 100 μM): < 1% | inhibition at 100 µM (HepG2 cells; HepG2, read-out: inhibition of rDNA at 100 μM): 36.3% | CC50 (in vitro [12]): > 100 µM | EC90 (SARS-CoV-2 [3]; [16]): 3.5 µM | CC50 (in vitro [13]): > 100 µM | pEC50 (HCoV-OC43; Betacoronavirus 1, OC43, read-out: Anti-HCoV-OC43 Activity EC50): 5.60 to 5.66 | EC90 (HCoV-OC43; Betacoronavirus 1, OC43, read-out: Anti-HCoV-OC43 Activity EC90): 6.1 to 7.3 µM | CC50 [4]: 68.3 µM | pEC50 (Omicron [14]; Severe acute respiratory syndrome coronavirus 2, Calu-3, read-out: Anti-Omicron Activity (Calu-3) EC50): 5.89 to 6.05 | EC90 (Omicron [14]; Severe acute respiratory syndrome coronavirus 2, Calu-3, read-out: Anti-Omicron Activity (Calu-3) EC90): 2.7 to 4.4 µM | pEC50 (SARS-CoV-2 [15]; Severe acute respiratory syndrome coronavirus 2, 3D primary culture, organoids, read-out: Anti-SARS-CoV-2 Activity (Organoids) EC50): 6.15 | CC50 [5]: > 100 µM

Nc1ccn([C@@H]2S[C@H](CO)[C@@H](O)[C@H]2O)c(=O)n1 [Compound 9, 4-amino-1-((2R,3R,4S,5R)-3,4-dihydroxy-5-(hydroxymethyl)tetrahydrothiophen-2-yl)pyrimidin-2(1H)-one]
CC50 [1]: > 100 µM | pEC50 (SARS-CoV-2 [2]): 6.70 | EC90 (SARS-CoV-2 [2]): 4.5 µM | pEC50 (SARS-CoV-2 [7]): 5.31 | EC90 (SARS-CoV-2 [7]; read-out: Anti-SARS-CoV-2 Activity (Caco2) EC90): > 10 µM | CC50 [9]: 28 µM | pEC50 (SARS-CoV-2 [3]; [16]): 5.72 | EC90 (SARS-CoV-2 [3]; [16]): 3.9 µM | CC50 [4]: 71.8 µM | CC50 [5]: 93.1 µM

CC(C)OC(=O)[C@H](C)N[P@](=O)(OC[C@H]1S[C@@H](n2ccc(=O)[nH]c2=O)[C@H](O)[C@@H]1O)Oc1ccccc1 [Compound 13, Isopropyl ((S)-(((2R,3S,4R,5R)-5-(2,4-dioxo-3,4-dihydropyrimidin-1(2H)-yl)-3,4-dihydroxytetrahydrothiophen-2-yl)methoxy)(phenoxy)phosphoryl)-L-alaninate]
CC50 [1]: > 100 µM | pEC50 (SARS-CoV-2 [2]): < 5.00 | CC50 [9]: > 100 µM | CC50 [4]: > 100 µM | CC50 [5]: > 100 µM

CC(C)OC(=O)[C@H](C)N[P@](=O)(OC[C@H]1S[C@@H](n2ccc(N)nc2=O)[C@H](O)[C@@H]1O)Oc1ccccc1 [Compound 16, Isopropyl ((S)-(((2R,3S,4R,5R)-5-(4-amino-2-oxopyrimidin-1(2H)-yl)-3,4-dihydroxytetrahydrothiophen-2-yl)methoxy)(phenoxy)phosphoryl)-L-alaninate]
CC50 [1]: > 100 µM | pEC50 (SARS-CoV-2 [2]): < 5.00 | CC50 [9]: > 100 µM | CC50 [4]: > 100 µM | CC50 [5]: > 100 µM

O=c1nc(NO)ccn1[C@@H]1O[C@H](CO)[C@@H](O)[C@H]1O [NHC, N4-hydroxycytidine]
pEC50 (Omicron [8]; [17]): < 5.00 | pEC50 (Omicron [8]; Severe acute respiratory syndrome coronavirus 2, Caco-2, read-out: Anti-Omicron Activity (Caco-2) EC50, value in parentheses): 4.88 | CC50 [9]: 2.6 µM | CC50 [4]: 16.5 µM | pEC50 (Omicron [14]; [18]): 6.40 | EC90 (Omicron [14]; [19]): 1.2 µM

CCC(CC)COC(=O)[C@H](C)N[P@](=O)(OC[C@H]1O[C@@](C#N)(c2ccc3c(N)ncnn23)[C@H](O)[C@@H]1O)Oc1ccccc1 [Remdesivir, reference compound]
pEC50 (SARS-CoV-2 [6]): 6.22 | CC50 [1]: 6.4 µM | pEC50 (Omicron [8]; [17]): 7.30 | EC90 (Omicron [8]): 0.4 µM | CC50 [9]: 12 µM | pEC50 (SARS-CoV-2 [3]; Severe acute respiratory syndrome coronavirus 2, Calu-3, 72 h): 7.00 | pEC50 (HCoV-OC43; Betacoronavirus 1, OC43; read-out: Anti-HCoV-OC43 Activity EC50): 7.52 to 8.15 | EC90 (HCoV-OC43; Betacoronavirus 1, OC43; read-out: Anti-HCoV-OC43 Activity EC90): 0.03 to 0.08 µM | pEC50 (Omicron [14]; [18]): 6.52 to 6.70 | EC90 (Omicron [14]; [19]): 0.6 to 0.7 µM | pEC50 (SARS-CoV-2 [15]; Severe acute respiratory syndrome coronavirus 2, read-out: Anti-SARS-CoV-2 Activity (Organoids) EC50): 6.15 | EC90 (SARS-CoV-2 [15]; Severe acute respiratory syndrome coronavirus 2, 3D primary culture, organoids): 1.5 µM | CC50 [5]: 1.5 µM

C[C@@H]1C[C@@H]([C@H](O)CC2CC(=O)NC(=O)C2)C(=O)[C@@H](C)C1 [cyclohexamide, Cycloheximide, reference compound]
CC50 (in vitro [12]): 10 µM | CC50 (in vitro [13]): 10 µM
